Measured values reported in ChEMBL document CHEMBL1201862, “PubChem BioAssay data set” (2004).
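Results reflect a 48-hour exposure of cells in 96-well plates to compound at five concentrations. The concentration for 50% growth inhibition is given as GI50.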 The source made the active and inactive calls. Cut-off read from the data, not from the text of the source: active = GI50 up to about 1.1 µM and inactive = higher.

Experiments:
Assay in all cases: growth of human tumour cells (NCI), 48 h
HCC 2998 = system: HCC 2998
LOX IMVI = system: LOX IMVI
NCI-H23 = system: NCI-H23
NCI-H522 = system: NCI-H522
OVCAR-8 = system: OVCAR-8
SF-295 = system: SF-295
SF-539 = system: SF-539
SK-MEL-28 = system: SK-MEL-28
SK-MEL-2 = system: SK-MEL-2
SN12C = system: SN12C
SNB-19 = system: SNB-19
SNB-75 = system: SNB-75
SW-620 = system: SW-620
CCRF-CEM = system: CCRF-CEM
K562 = system: K562
MOLT-4 = system: MOLT-4
NCI-H226 = system: NCI-H226
UACC-62 = system: UACC-62
CAKI-1 = system: CAKI-1

Measured: GI50

CCCCCC1CC(C(C)=O)CN1c1ccc(F)cc1 (configuration not stated)
inactive: HCC 2998 38.1 µM | LOX IMVI 28 µM | NCI-H23 24.8 µM | NCI-H522 21.2 µM | OVCAR-8 32.3 µM | SF-295 21.2 µM | SF-539 > 100 µM | SK-MEL-28 54.5 µM | SK-MEL-2 38.9 µM | SN12C 48.5 µM | SNB-19 > 10 µM | SNB-75 25.5 µM | SW-620 29.7 µM

Nc1nc(Cl)cc(NCCCCCCCCCCCCNc2cc(Cl)nc(N)n2)n1
inactive: CCRF-CEM 1.69 µM | HCC 2998 38.5 µM | MOLT-4 1.33 µM | NCI-H226 15 µM | OVCAR-8 10.1 µM | SF-295 1.41 µM | SF-539 15.2 µM | SK-MEL-28 7.67 µM | SK-MEL-2 34.4 µM | SN12C 32.7 µM | SNB-75 8.53 µM | SW-620 28.8 µM | UACC-62 6.84 µM
active: K562 0.0655 µM | LOX IMVI 0.0869 µM | NCI-H23 0.0136 µM

CC1(C)CCc2cc3c(cc2O1)OC(C)(C)CC3=O
inactive: CAKI-1 52.5 µM | CCRF-CEM 76.6 µM | K562 44.6 µM | LOX IMVI > 100 µM | MOLT-4 46.8 µM | NCI-H226 34.2 µM | NCI-H23 91.6 µM | NCI-H522 2.39 µM | OVCAR-8 > 100 µM | SF-295 > 100 µM | SF-539 > 100 µM | SK-MEL-2 > 100 µM | SN12C 65.5 µM | SNB-75 70.8 µM | SW-620 > 100 µM | UACC-62 > 100 µM

O=C1C2=C(c3ccccc31)C(c1ccc(Cl)cc1)NC(S)=N2 (configuration not stated)
inactive: CAKI-1 28.4 µM | CCRF-CEM 24.5 µM | K562 19 µM | MOLT-4 17.9 µM | NCI-H226 16.9 µM | NCI-H23 17.3 µM | NCI-H522 20.1 µM | OVCAR-8 20 µM | SF-295 15.5 µM | SF-539 15.7 µM | SK-MEL-28 17.1 µM | SK-MEL-2 23.3 µM | SN12C 17.2 µM | SNB-19 26.3 µM | SNB-75 15.9 µM | SW-620 20.5 µM | UACC-62 23 µM

CS(=O)(=O)OCC1=C(COS(C)(=O)=O)C(=O)c2c(O)ccc(O)c2C1=O
inactive: CAKI-1 > 100 µM | CCRF-CEM > 100 µM | HCC 2998 > 100 µM | K562 > 100 µM | MOLT-4 > 100 µM | NCI-H226 > 100 µM | NCI-H23 > 100 µM | NCI-H522 > 100 µM | OVCAR-8 > 100 µM | SF-295 > 100 µM | SF-539 > 100 µM | SK-MEL-28 > 100 µM | SK-MEL-2 > 100 µM | SN12C > 100 µM | SNB-75 > 100 µM | SW-620 > 100 µM | UACC-62 > 100 µM

[N-]=[N+]=CC(=O)c1ccccc1C#CCCc1ccccc1
active: NCI-H522 1.05 µM
inactive: CCRF-CEM 10.9 µM | HCC 2998 31.8 µM | K562 27.5 µM | LOX IMVI 30.1 µM | MOLT-4 12.1 µM | NCI-H226 29.4 µM | NCI-H23 21.5 µM | OVCAR-8 27.8 µM | SF-295 40.4 µM | SF-539 36.6 µM | SK-MEL-28 48.2 µM | SK-MEL-2 27.2 µM | SN12C 35.5 µM | SNB-19 38.3 µM | SNB-75 15.6 µM | SW-620 32.7 µM | UACC-62 18.6 µM

CCCCCC/C(CC(=O)CCC(=O)NCCc1ccccc1)=N\NC(=O)c1ccc2ccccc2c1O
inactive: CCRF-CEM 10.3 µM | HCC 2998 53.3 µM | LOX IMVI 17.7 µM | MOLT-4 11.5 µM | NCI-H226 55 µM | NCI-H23 31.6 µM | OVCAR-8 29.4 µM | SF-295 48 µM | SK-MEL-28 45.9 µM | SK-MEL-2 20 µM | SN12C 49.5 µM | SNB-19 59.8 µM | SNB-75 78.5 µM | SW-620 52.7 µM | UACC-62 22 µM
